In PMC7719179, “Small molecule inhibition of Dynamin-dependent endocytosis targets multiple niche signals and impairs leukemia stem cells” (Nature Communications, 2020):
Where “and” joins values, the source holds several entries; their conditions need not be identical. Identical values can stand only once.

How the values were obtained:
Ba/F3-IL7R cells = test: Survival of IL-7-dependent Ba/F3-IL7R cells; format: cell-based, murine; conditions: for Survival (%) over DMSO control, reported as 100%: Ba/F3-IL7R cells, replicates
Description: Ba/F3 cells (kindly provided by a person from The Walter and Eliza Hall Institute of Medical Research) were infected with pMIG-R1/Il7r retroviral supernatants produced in 293T cells, and transduced cells were sorted with a BD Influx (BD Australia) and selected by culture in medium supplemented with 5 ng/mL rmIL-7 (#217-17, Pepro Tech, Rocky Hill NJ, USA) for 7 days. Ba/F3 cells stably expressing Il7r (Ba/F3-IL7R) were infected with TxTCPVIR-Stat5-CA retroviral supernatants produced in 293T. Cell sorting was performed with a BD Influx and transduced cells were treated with doxycycline for 48 h to induce the expression of the Stat5-CA-T2A-mCherry fusion protein.
(§1) Flow cytometry analyses were performed as previously described[10],[86] on single-cell suspensions stained using BD Pharmingen antibodies (BD Australia, North Ryde NSW, Australia) against mouse CD4 (RM4-5), CD8 (53-6.7), CD25 (PC61.5), CD44 (IM7), CD45.1 (A20), CD45.2 (104), Thy1.2 (53-2.1; #561616), TCRβ (H57-597), CD117 (ACK45), CD135 (A2F10.1), CD150 (TC15-12F12.2; #562373), B220 (RA3-6B2; #563708), CD3 (145-2C11; #563004), CD19 (ID3; #557655), Gr-1 (RB6-8C5; #563299 and #565033), CD11b (M1/70; #563015 and #560455), Ter119 (Ter119; #565523 and #557909), Sca-1 (D7; #558160) and an eBioscience antibody (eBioscience, Invitrogen) against mouse NOTCH1 (22E5). DN3 populations and IL-7R were stained using BioLegend antibodies (Australian Biosearch, Balcatta WA, Australia) against mouse CD28 (E18) and CD127 (A7R34), respectively. Apoptosis was measured using an antibody against AnnexinV (#556420, BD Australia) and the […] Sytox Blue (BD Australia) following the manufacturer’s protocol.

[1] = tested on: Lmo2^Tg primary leukemias (T-ALL 249, T-ALL 273, T-ALL 582); test: In vivo efficacy in recipients of Lmo2^Tg primary T-ALL: leukemic DN3a cells, spleen weight, %Cd45.2+ in blood; set-up: species or system mouse; conditions: for Absolute numbers CD45.2+ DN3a cells: 24 h after last administration
Description: These compounds were diluted in 50% v/v DMSO/20 mM Tris-HCl pH 7.4 immediately prior to use.
as §1, with “protocol. […]” for “protocol.”
The period of administration is indicated in light grey.
g, Leukemia growth delay (LGD) in recipients injected with Lmo2Tg primary leukemias treated with
Median is indicated for each condition
(bar) with Mean ± SEM indicated for each primary T-ALL, 2-way ANOVA with Tukey’s correction

SMILES: CCCCCCCCNC(=O)C(C#N)=Cc1cn(CCCN(C)C)c2ccccc12 [Dynole 34-2, 2-Cyano-N-octyl-3-(1-(3-dimethylaminopropyl)-1H-indol-3-yl)-acrylamide]
- Survival (%) over DMSO control, reported as 100% (Ba/F3-IL7R cells; +IL-7, Dynole 34-2 0.2 (head prints mM)): 98.98% and 96.19% and 98.31% and 99.95% and 64.95% and 22.36% and 89.89% and 75.78% and 97.73% and 100.16%
- Survival (%) over DMSO control, reported as 100% (Ba/F3-IL7R cells; +IL-7, Dynole 34-2 1.0 (head prints mM)): 96.00% and 88.79% and 100.24% and 102.05% and 16.85% and 13.04% and 78.86% and 82.29% and 101.66% and 91.15%
- Survival (%) over DMSO control, reported as 100% (Ba/F3-IL7R cells; +IL-7, Dynole 34-2 5.0 (head prints mM)): 81.60% and 25.70% and 92.65% and 90.92% and 25.47% and 16.90% and 48.81% and 60.17% and 57.90% and 33.60%
- Survival (%) over DMSO control, reported as 100% (Ba/F3-IL7R cells; +IL-7, Dynole 34-2 10.0 (head prints mM)): 1.62% and 1.82% and 0.05% and 0.27% and 26.62% and 22.03% and 44.15% and 40.27% and 4.53% and 9.16%
- Survival (%) over DMSO control, reported as 100% (Ba/F3-IL7R cells; +IL-7, Dynole 34-2 25.0 (head prints mM)): 1.30% and 1.60% and 0.00% (2×) and 24.81% and 18.62% and 3.40% and 4.14% and 4.55% and 3.04%
- cell death of Ba/F3-IL7R cells (Ba/F3-IL7R cells; result in words): induced cell death in a dose-dependent manner
- Absolute numbers CD45.2+ DN3a cells ([1]; T-ALL 249, Spleen of recipients): 14400000 and 25700000 and 20600000
- Proportion of CD45.2+ (%) in peripheral blood ([1]; T-ALL 249, time 1 weeks): 1.0%
- Proportion of CD45.2+ (%) in peripheral blood ([1]; T-ALL 249, time 3 weeks): 85.0% and 93.0% and 82.0% and 75.0%
- Proportion of CD45.2+ (%) in peripheral blood ([1]; T-ALL 249, time 3.7 weeks): 85.0% and 76.0%
- Proportion of CD45.2+ (%) in peripheral blood ([1]; T-ALL 249, time 4 weeks): 42.1% and 57.0% and 54.0% and 43.9% and 53.3%
- Absolute numbers CD45.2+ DN3a cells ([1]; T-ALL 273, BM of recipients): 9200 and 6480 and 12500
- Proportion of CD45.2+ (%) in peripheral blood ([1]; T-ALL 273, time 1 weeks): 1.0%
- Proportion of CD45.2+ (%) in peripheral blood ([1]; T-ALL 273, time 5 weeks): 2.0%
- Proportion of CD45.2+ (%) in peripheral blood ([1]; T-ALL 273, time 6 weeks): 64.0%
- Proportion of CD45.2+ (%) in peripheral blood ([1]; T-ALL 582, time 1 weeks): 4.9% and 3.3% and 7.9% and 0.1%
- Proportion of CD45.2+ (%) in peripheral blood ([1]; T-ALL 582, time 2 weeks): 19.6%
- Proportion of CD45.2+ (%) in peripheral blood ([1]; T-ALL 582, time 4 weeks): 5.1% and 6.0% and 2.7% and 1.8%
- Proportion of CD45.2+ (%) in peripheral blood ([1]; T-ALL 582, time 4.1 weeks): 57.1%
- Proportion of CD45.2+ (%) in peripheral blood ([1]; T-ALL 582, time 5 weeks): 40.6% and 45.8% and 42.7% and 38.8%
- Proportion of CD45.2+ (%) in peripheral blood ([1]; T-ALL 582, time 5.6 weeks): 90.7%
- Proportion of CD45.2+ (%) in peripheral blood ([1]; T-ALL 582, time 6 weeks): 97.8%
- Proportion of CD45.2+ (%) in peripheral blood ([1]; T-ALL 582, time 6.3 weeks): 96.2%
- Spleen weight ([1]; recipients of primary T-ALL 273): 0.186 g and 0.118 g and 0.165 g
- Spleen weight ([1]; recipients of primary T-ALL 582): 0.123 g and 0.097 g and 0.095 g
